# Laboratory results published in PubChem BioAssay AID1259411 (Chemical Carcinogenesis Research Information System (CCRIS), 2018).
# Active and inactive are the calls of the source. How the calls were made is not given here.
# Tested on: rodent carcinogenicity bioassays, tumor incidence
# Assay: CCRIS carcinogenicity studies
# Conditions: Dose: 0, Dose: 0
# Procedure, shortened: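 Archive of carcinogenicity, mutagenicity, tumor promotion and tumor inhibition results drawn from journals, NCI reports and other sources, expert-reviewed; covers 1985-2011 and is no longer updated.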
smiles,measurement,setting,value
O=[N+]([O-])c1ccc2c3c(cccc13)CC2,carcinogen call,"Species: MOUSE, Strain/Sex: B6C3F1/FEMALE, Route: ORAL, 0.05, 0.12% TWA, IN DIET FOR 78 WK (STUDY DURATION: 96 WK), 0.05, 0.12% TWA, IN DIET FOR 78 WK (STUDY DURATION: 96 WK), Tumor Site: Type of Lesion: LIVER: HEPATOCELLULAR CARCINOMA, OVARIES: GRANULOSA CELL TUMOR, LUTEOMA OR TUBULAR CELL ADENOMA",active; positive
same,carcinogen call,"Species: MOUSE, Strain/Sex: B6C3F1/MALE, Route: ORAL, 0.06, 0.12% TWA, IN DIET FOR 78 WK (STUDY DURATION: 96 WK), 0.06, 0.12% TWA, IN DIET FOR 78 WK (STUDY DURATION: 96 WK)",inactive; negative
same,carcinogen call,"Species: RAT, Strain/Sex: F344/FEMALE, Route: ORAL, 0.12, 0.24% IN DIET FOR 78 WK (STUDY DURATION: 87-100 WK), 0.12, 0.24% IN DIET FOR 78 WK (STUDY DURATION: 87-100 WK), Tumor Site: Type of Lesion: LUNG: ALVEOLAR/BRONCHIOLAR ADENOMA OR ALVEOLAR/BRONCHIOLAR CARCINOMA, MAMMARY GLAND: ADENOCARCINOMA OR PAPILLARY CYSTADE",active; positive
same,carcinogen call,"Species: RAT, Strain/Sex: F344/MALE, Route: ORAL, 0.12, 0.24% IN DIET FOR 70-78 WK (STUDY DURATION: 70-100 WK), 0.12, 0.24% IN DIET FOR 70-78 WK (STUDY DURATION: 70-100 WK), Tumor Site: Type of Lesion: LUNG: ALVEOLAR/BRONCHIOLAR ADENOMA OR ALVEOLAR/BRONCHIOLAR CARCINOMA, EAR (EAR CANAL OR SKIN OF EAR): SQUAMOUS CELL CARC",active; positive
c1cc(OCC2CO2)cc(OCC2CO2)c1 (stereo not given),carcinogen call,"Species: MOUSE, Strain/Sex: B6C3F1/FEMALE, Route: GAVAGE, 50, 100 MG/KG BW IN CORN OIL 5 D/WK FOR 103 WK (STUDY DURATION: 105 WK), 50, 100 MG/KG BW IN CORN OIL 5 D/WK FOR 103 WK (STUDY DURATION: 105 WK), Tumor Site: Type of Lesion: FORESTOMACH: SQUAMOUS CELL CARCINOMA, SQUAMOUS CELL PAPILLOMA",active; positive
same,carcinogen call,"Species: MOUSE, Strain/Sex: B6C3F1/FEMALE, Route: GAVAGE, 50, 100 MG/KG IN CORN OIL 5 D/WK FOR 103 WK (STUDY DURATION: 104-105 WK), 50, 100 MG/KG IN CORN OIL 5 D/WK FOR 103 WK (STUDY DURATION: 104-105 WK), Tumor Site: Type of Lesion: FORESTOMACH: SQUAMOUS CELL PAPILLOMA, SQUAMOUS CELL CARCINOMA",active; positive
same,carcinogen call,"Species: MOUSE, Strain/Sex: B6C3F1/MALE, Route: GAVAGE, 50, 100 MG/KG BW IN CORN OIL 5 D/WK FOR 103 WK (STUDY DURATION: 105 WK), 50, 100 MG/KG BW IN CORN OIL 5 D/WK FOR 103 WK (STUDY DURATION: 105 WK), Tumor Site: Type of Lesion: FORESTOMACH: SQUAMOUS CELL CARCINOMA, SQUAMOUS CELL PAPILLOMA",active; positive
same,carcinogen call,"Species: MOUSE, Strain/Sex: B6C3F1/MALE, Route: GAVAGE, 50, 100 MG/KG IN CORN OIL 5 D/WK FOR 103 WK (STUDY DURATION: 104-105 WK), 50, 100 MG/KG IN CORN OIL 5 D/WK FOR 103 WK (STUDY DURATION: 104-105 WK), Tumor Site: Type of Lesion: FORESTOMACH: SQUAMOUS CELL PAPILLOMA, SQUAMOUS CELL CARCINOMA",active; positive
same,carcinogen call,"Species: RAT, Strain/Sex: F344/FEMALE, Route: GAVAGE, 12, 25, 50 MG/KG BW IN CORN OIL 5 D/WK FOR 103 WK (STUDY DURATION: 105 WK), 12, 25, 50 MG/KG BW IN CORN OIL 5 D/WK FOR 103 WK (STUDY DURATION: 105 WK), Tumor Site: Type of Lesion: FORESTOMACH: SQUAMOUS CELL CARCINOMA, SQUAMOUS CELL PAPILLOMA",active; positive
same,carcinogen call,"Species: RAT, Strain/Sex: F344/FEMALE, Route: GAVAGE, 12, 25, 50 MG/KG IN CORN OIL 5 D/WK FOR 103 WK (STUDY DURATION: 104-105 WK), 12, 25, 50 MG/KG IN CORN OIL 5 D/WK FOR 103 WK (STUDY DURATION: 104-105 WK), Tumor Site: Type of Lesion: FORESTOMACH: SQUAMOUS CELL PAPILLOMA, SQUAMOUS CELL CARCINOMA",active; positive
same,carcinogen call,"Species: RAT, Strain/Sex: F344/MALE, Route: GAVAGE, 12, 25, 50 MG/KG IN CORN OIL 5 D/WK FOR 103 WK (STUDY DURATION: 104-105 WK), 12, 25, 50 MG/KG IN CORN OIL 5 D/WK FOR 103 WK (STUDY DURATION: 104-105 WK), Tumor Site: Type of Lesion: FORESTOMACH: SQUAMOUS CELL PAPILLOMA, SQUAMOUS CELL CARCINOMA",active; positive
same,carcinogen call,"Species: RAT, Strain/Sex: F344/MALE, Route: GAVAGE, 12, 25, 50 MG/KG IN CORN OIL 5 D/WK FOR 103 WK (STUDY DURATION: 105 WK), 12, 25, 50 MG/KG IN CORN OIL 5 D/WK FOR 103 WK (STUDY DURATION: 105 WK), Tumor Site: Type of Lesion: FORESTOMACH: SQUAMOUS CELL CARCINOMA, SQUAMOUS CELL PAPILLOMA",active; positive
Cc1cc(O)c(C(C)(C)C)cc1Sc1cc(C(C)(C)C)c(O)cc1C,carcinogen call,"Species: MOUSE, Strain/Sex: B6C3F1/FEMALE, Route: ORAL, 250, 500, 1000 PPM IN DIET FOR 2 YR (STUDY DURATION: 104 WK), 250, 500, 1000 PPM IN DIET FOR 2 YR (STUDY DURATION: 104 WK)",inactive; negative
same,carcinogen call,"Species: MOUSE, Strain/Sex: B6C3F1/MALE, Route: ORAL, 250, 500, 1000 PPM IN DIET FOR 2 YR (STUDY DURATION: 104 WK), 250, 500, 1000 PPM IN DIET FOR 2 YR (STUDY DURATION: 104 WK)",inactive; negative
same,carcinogen call,"Species: RAT, Strain/Sex: F344/FEMALE, Route: ORAL, 500, 1000, 2500 PPM IN DIET FOR 2 YR (STUDY DURATION: 104 WK), 500, 1000, 2500 PPM IN DIET FOR 2 YR (STUDY DURATION: 104 WK)",inactive; negative
same,carcinogen call,"Species: RAT, Strain/Sex: F344/MALE, Route: ORAL, 500, 1000, 2500 PPM IN DIET FOR 2 YR (STUDY DURATION: 104 WK), 500, 1000, 2500 PPM IN DIET FOR 2 YR (STUDY DURATION: 104 WK)",inactive; negative
ClC1=C(Cl)C2(Cl)C3C(Cl)C(Cl)CC3C1(Cl)C2(Cl)Cl (stereo not given),carcinogen call,"Species: MOUSE, Strain/Sex: C57B1/MALE, Route: ORAL, 50 PPM IN DIET FOR 24 MO (STUDY DURATION: 24 MO), Tumor Site: Type of Lesion: LIVER: ADENOMA OR CARCINOMA",active; positive
same,carcinogen call,"Species: MOUSE, Strain/Sex: ICR/FEMALE, Route: ORAL, 1, 5, 12.5 PPM IN DIET FOR 104 WK (STUDY DURATION: 104 WK), 1, 5, 12.5 PPM IN DIET FOR 104 WK (STUDY DURATION: 104 WK)",inactive; negative
same,carcinogen call,"Species: MOUSE, Strain/Sex: ICR/MALE, Route: ORAL, 1, 5, 12.5 PPM IN DIET FOR 104 WK (STUDY DURATION: 104 WK), 1, 5, 12.5 PPM IN DIET FOR 104 WK (STUDY DURATION: 104 WK), Tumor Site: Type of Lesion: LIVER: ADENOMA, HEMANGIOMA",active; positive
same,carcinogen call,"Species: RAT, Strain/Sex: F344/FEMALE, Route: ORAL, 1, 5, 25 PPM IN DIET FOR 130 WK (STUDY DURATION: 130 WK), 1, 5, 25 PPM IN DIET FOR 130 WK (STUDY DURATION: 130 WK), Tumor Site: Type of Lesion: MAMMARY GLAND: FIBROADENOMA",active; positive
same,carcinogen call,"Species: RAT, Strain/Sex: F344/MALE, Route: ORAL, 1, 5, 25 PPM IN DIET FOR 130 WK (STUDY DURATION: 130 WK), 1, 5, 25 PPM IN DIET FOR 130 WK (STUDY DURATION: 130 WK), Tumor Site: Type of Lesion: LIVER: NODULE",active; positive
O=C1CCCO1,carcinogen call,"Species: MOUSE, Strain/Sex: B6C3F1/FEMALE, Route: GAVAGE, 262, 525 MG/KG IN CORN OIL 5 D/WK FOR 103 WK (STUDY DURATION: 2 YR), 262, 525 MG/KG IN CORN OIL 5 D/WK FOR 103 WK (STUDY DURATION: 2 YR)",inactive; negative
same,carcinogen call,"Species: MOUSE, Strain/Sex: B6C3F1/FEMALE, Route: GAVAGE, 262, 525 MG/KG IN CORN OIL 5 D/WK FOR 103 WK (STUDY DURATION: 105 WK), 262, 525 MG/KG IN CORN OIL 5 D/WK FOR 103 WK (STUDY DURATION: 105 WK), Tumor Site: Type of Lesion: ADRENAL MEDULLA: BENIGN OR MALIGNANT PHEOCHROMOCYTOMA",equivocal
same,carcinogen call,"Species: RAT, Strain/Sex: F344/FEMALE, Route: GAVAGE, 225, 450 MG/KG IN CORN OIL 5 D/WK FOR 103 WK (STUDY DURATION: 2 YR), 225, 450 MG/KG IN CORN OIL 5 D/WK FOR 103 WK (STUDY DURATION: 2 YR)",inactive; negative
same,carcinogen call,"Species: RAT, Strain/Sex: F344/MALE, Route: GAVAGE, 112, 225 MG/KG IN CORN OIL 5 D/WK FOR 103 WK (STUDY DURATION: 2 YR), 112, 225 MG/KG IN CORN OIL 5 D/WK FOR 103 WK (STUDY DURATION: 2 YR)",inactive; negative
